# Tests used:
# [1] = biological target: T1, Aiolos (Homo sapiens, UniProt Q96SW2+Q9UKT9); assay: Aiolos degradation flow cytometry assay in human PBMCs (T cells); format: cell-based; conditions: 24 hours, T cells (CD3+CD20-), read-out: Aiolos T Cell DC50
# T1 construct: Frozen human peripheral blood mononuclear cells (PBMCs) were thawed and treated with DMSO or compound for 24 hours; endogenous in cells; host or cells: human PBMCs (T cells gated CD3+CD20-)
# Method: Example 67: Aiolos Degradation Assay
# Frozen human peripheral blood mononuclear cells (PBMCs) were thawed and treated with DMSO or compound for 24 hours and then fixed and permeabilized using a Foxp3/Transcription Factor Fixation/Permeabilization Kit (eBioscience, 00-5523). Cells were stained with fluorophore-conjugated antibodies against CD20 (Biolegend 302330), CD3 (BD Pharmingen 552127), and Aiolos (Biolegend 371106). An additional set of DMSO-treated PBMCs was stained for CD20, CD3, and an AlexaFluor 647-conjugated mouse IgG1 isotype control antibody (Biolegend 400136). Stained cells were analyzed using an Attune NxT Acoustic Focusing Flow Cytometer (Thermo-Fisher A29004), and data was analyzed using FlowJo (v10.5.3) and GraphPad Prism (v7.00) software. Single lymphocytes were gated for B cells (CD20+CD3−) and T cells (CD3+CD20−), and the geometric mean fluorescence intensity (MFI) of Aiolos was calculated for each population. The MFI of the isotype control was calculated for each population and used to quantify background staining. Percent Aiolos degradation was calculated for each compound-treated sample using the following equation: […]
# Four-parameter non-linear regressions were performed in GraphPad Prism 7.02 to obtain DC50 values. Aiolos T Cell DC50 values are provided in Table 4, wherein A<10.0 nM, 10.0 nM≤B≤1000 nM, and 1000 nM<C.
# [2] = biological target: T2, BTK (Homo sapiens, UniProt Q06187); assay: Cellular BTK HTRF assay (BTK degradation) in TMD8 cells; format: cell-based; conditions: four hours incubation, Total-BTK HTRF relative to DMSO-treated cells
# T2 construct: endogenous in cells; host or cells: TMD8 cells
# T2 sequence (Q06187 whole entry): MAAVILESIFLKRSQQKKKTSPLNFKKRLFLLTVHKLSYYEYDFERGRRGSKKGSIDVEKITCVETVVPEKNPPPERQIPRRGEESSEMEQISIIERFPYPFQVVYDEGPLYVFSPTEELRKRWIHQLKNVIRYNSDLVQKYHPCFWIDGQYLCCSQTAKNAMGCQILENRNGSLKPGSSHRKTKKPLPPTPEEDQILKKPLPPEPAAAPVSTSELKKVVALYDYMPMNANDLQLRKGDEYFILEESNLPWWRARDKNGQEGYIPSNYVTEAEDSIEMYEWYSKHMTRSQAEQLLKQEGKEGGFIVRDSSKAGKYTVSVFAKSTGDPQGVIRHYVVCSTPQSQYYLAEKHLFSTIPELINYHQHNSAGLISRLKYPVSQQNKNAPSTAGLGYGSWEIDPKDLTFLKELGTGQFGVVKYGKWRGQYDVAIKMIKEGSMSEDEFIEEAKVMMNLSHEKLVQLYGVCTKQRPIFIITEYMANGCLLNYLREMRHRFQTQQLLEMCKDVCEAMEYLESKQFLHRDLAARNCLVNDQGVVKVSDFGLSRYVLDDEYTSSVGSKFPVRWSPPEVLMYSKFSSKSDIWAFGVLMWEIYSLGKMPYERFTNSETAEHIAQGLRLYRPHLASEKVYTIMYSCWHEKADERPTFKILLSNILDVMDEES
# Procedure, shortened: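 TMD8 cells were treated with compounds (final DMSO <0.200) for four hours at 37° C, 5% CO2, then lysed for 30 minutes. Total BTK was measured by two-antibody HTRF, taking the 665/620 nm ratio with background subtracted and expressed relative to DMSO-treated cells. DC50 came from four-parameter nonlinear regression.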
# T1 sequence (Q9UKT9 whole entry): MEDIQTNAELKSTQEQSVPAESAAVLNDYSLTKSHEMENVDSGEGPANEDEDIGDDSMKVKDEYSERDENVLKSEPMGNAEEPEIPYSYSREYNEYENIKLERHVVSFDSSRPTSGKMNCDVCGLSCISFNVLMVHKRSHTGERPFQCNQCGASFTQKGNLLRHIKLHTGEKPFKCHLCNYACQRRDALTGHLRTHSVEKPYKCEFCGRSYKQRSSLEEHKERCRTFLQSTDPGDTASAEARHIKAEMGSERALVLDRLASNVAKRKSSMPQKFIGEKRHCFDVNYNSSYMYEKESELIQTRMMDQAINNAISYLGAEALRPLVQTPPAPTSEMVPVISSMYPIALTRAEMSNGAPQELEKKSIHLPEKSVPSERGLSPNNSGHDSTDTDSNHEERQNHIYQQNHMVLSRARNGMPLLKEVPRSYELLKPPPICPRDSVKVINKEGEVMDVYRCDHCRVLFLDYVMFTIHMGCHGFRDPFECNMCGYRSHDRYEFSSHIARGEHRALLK
# T1 sequence (Q96SW2 whole entry): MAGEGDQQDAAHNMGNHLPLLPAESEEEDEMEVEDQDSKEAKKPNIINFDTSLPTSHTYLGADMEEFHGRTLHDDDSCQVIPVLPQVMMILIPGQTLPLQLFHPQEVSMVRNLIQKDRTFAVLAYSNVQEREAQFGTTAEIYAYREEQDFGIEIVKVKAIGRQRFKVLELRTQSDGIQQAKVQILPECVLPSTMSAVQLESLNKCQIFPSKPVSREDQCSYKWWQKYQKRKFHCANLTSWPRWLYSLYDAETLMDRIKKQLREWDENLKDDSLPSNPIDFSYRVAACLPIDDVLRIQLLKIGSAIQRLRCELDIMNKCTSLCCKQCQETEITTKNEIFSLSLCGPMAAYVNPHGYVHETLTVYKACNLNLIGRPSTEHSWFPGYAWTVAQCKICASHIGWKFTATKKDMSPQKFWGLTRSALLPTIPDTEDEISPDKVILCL
# T1 sequence (Q16531 whole entry partner): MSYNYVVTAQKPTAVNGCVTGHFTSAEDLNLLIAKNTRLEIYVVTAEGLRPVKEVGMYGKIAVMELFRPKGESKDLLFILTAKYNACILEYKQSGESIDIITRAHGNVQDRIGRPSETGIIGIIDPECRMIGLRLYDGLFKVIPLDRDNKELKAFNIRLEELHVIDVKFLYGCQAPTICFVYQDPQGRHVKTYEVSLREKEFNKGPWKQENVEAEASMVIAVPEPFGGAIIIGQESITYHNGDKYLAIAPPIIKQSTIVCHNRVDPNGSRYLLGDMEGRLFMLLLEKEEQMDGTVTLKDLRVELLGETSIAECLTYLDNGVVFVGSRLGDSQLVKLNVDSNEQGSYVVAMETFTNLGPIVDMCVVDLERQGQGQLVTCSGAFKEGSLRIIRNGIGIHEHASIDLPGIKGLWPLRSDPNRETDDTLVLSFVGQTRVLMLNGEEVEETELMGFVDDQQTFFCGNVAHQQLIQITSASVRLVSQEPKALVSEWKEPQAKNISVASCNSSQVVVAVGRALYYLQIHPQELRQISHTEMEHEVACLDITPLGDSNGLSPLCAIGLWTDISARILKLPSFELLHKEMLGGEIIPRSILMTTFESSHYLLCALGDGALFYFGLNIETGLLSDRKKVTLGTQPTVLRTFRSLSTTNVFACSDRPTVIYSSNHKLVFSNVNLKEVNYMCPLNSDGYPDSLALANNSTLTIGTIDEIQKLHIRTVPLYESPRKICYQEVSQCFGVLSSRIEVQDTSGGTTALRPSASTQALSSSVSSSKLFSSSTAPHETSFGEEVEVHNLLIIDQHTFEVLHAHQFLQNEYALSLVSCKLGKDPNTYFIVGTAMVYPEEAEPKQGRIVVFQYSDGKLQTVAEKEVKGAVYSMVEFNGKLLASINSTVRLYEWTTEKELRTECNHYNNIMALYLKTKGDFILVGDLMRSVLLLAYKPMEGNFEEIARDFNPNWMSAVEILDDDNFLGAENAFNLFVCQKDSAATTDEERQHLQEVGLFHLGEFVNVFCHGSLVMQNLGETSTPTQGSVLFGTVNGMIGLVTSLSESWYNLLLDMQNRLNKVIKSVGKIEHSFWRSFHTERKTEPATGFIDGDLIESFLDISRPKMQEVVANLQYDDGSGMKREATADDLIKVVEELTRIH
Structure (SMILES),DC50 [1],DC50 [2]
CN1CCN([C@@H]2CCCN(c3cnc(C(N)=O)c(Nc4ccc(N5CCN(CCCCc6cccc7c6CN(C6CCC(=O)NC6=O)C7=O)CC5)cc4)n3)C2)C1=O (stereo partly drawn) [Compound 17],10 to 1000 nM,< 5 nM
CN1CCN([C@@H]2CCCN(c3cnc(C(N)=O)c(Nc4ccc(C5(C)CCN(C(=O)CCOCCC(=O)Nc6cccc7c6CN(C6CCC(=O)NC6=O)C7=O)CC5)cc4)n3)C2)C1=O (stereo partly drawn) [Compound 14],> 1000 nM,> 15 nM
CN1CCN([C@@H]2CCCN(c3cnc(C(N)=O)c(Nc4ccc(N5CCN(C(=O)CCOCCCc6ccc7c(c6)C(=O)N(C6CCC(=O)NC6=O)C7)CC5)cc4)n3)C2)C1=O (stereo partly drawn) [Compound 61],> 1000 nM,< 5 nM
CN1CCN([C@H]2CCCN(c3cnc(C(N)=O)c(Nc4ccc(N5CCN(CC#Cc6cccc7c6CN(C6CCC(=O)NC6=O)C7=O)CC5)cc4)n3)C2)C1=O (stereo partly drawn) [Compound 99],> 1000 nM,< 5 nM
CN1CCN([C@@H]2CCCN(c3cnc(C(N)=O)c(Nc4ccc(C5(C)CCN(C6CN(Cc7ccc8c(c7)C(=O)N(C7CCC(=O)NC7=O)C8=O)C6)CC5)cc4)n3)C2)C1=O (stereo partly drawn) [Compound 75],> 1000 nM,< 5 nM
NC(=O)c1ncc(N2CCCCC2)nc1Nc1ccc(N2CCC3(CCN(Cc4ccc5c(c4)C(=O)N(C4CCC(=O)NC4=O)C5=O)CC3)CC2)cc1 (stereo not drawn) [Compound 123],> 1000 nM,5 to 15 nM
"CN1CCN([C@@H]2CCCN(c3cnc(C(N)=O)c(Nc4ccc(N5CC6(C5)CN(c5ccc7c(c5)C(=O)N(C5CCC(=O)NC5=O)C7=O)C6)cc4)n3)C2)C1=O (stereo partly drawn) [Compound 34, 3-((4-(6-(2-(2,6-dioxopiperidin-3-yl)-1,3-dioxoisoindolin-5-yl)-2,6-diazaspiro[3.3]heptan-2-yl)phenyl)amino)-5-((R)-3-(3-methyl-2-oxoimidazolidin-1-yl)piperidin-1-yl)pyrazine-2-carboxamide]",10 to 1000 nM,< 5 nM
CN1CCN([C@@H]2CCCN(c3cnc(C(N)=O)c(Nc4ccc(C5CCN(CCCNc6cccc7c6C(=O)N(C6CCC(=O)NC6=O)C7=O)CC5)cc4)n3)C2)C1=O (stereo partly drawn) [Compound 155],10 to 1000 nM,< 5 nM
CN1CCN([C@@H]2CCCN(c3cnc(C(N)=O)c(Nc4ccc(C5CCN(C(=O)CCOCCNc6cccc7c6C(=O)N(C6CCC(=O)NC6=O)C7=O)CC5)cc4)n3)C2)C1=O (stereo partly drawn) [Compound 25],< 10 nM,5 to 15 nM
CN1CCN([C@H]2CCCN(c3cnc(C(N)=O)c(Nc4ccc5c(c4)CCN(CC4CN(c6ccc7c(c6)C(=O)N(C6CCC(=O)NC6=O)C7=O)C4)C5)n3)C2)C1=O (stereo partly drawn) [Compound 92],< 10 nM,5 to 15 nM
"CN1CCN([C@@H]2CCCN(c3cnc(C(N)=O)c(Nc4ccc(N5CCC6(CCN(C(=O)CCOCCCc7cccc8c7CN(C7CCC(=O)NC7=O)C8=O)CC6)CC5)cc4)n3)C2)C1=O (stereo partly drawn) [Compound 57, 3-((4-(9-(3-(3-(2-(2,6-dioxopiperidin-3-yl)-1-oxoisoindolin-4-yl)propoxy)propanoyl)-3,9-diazaspiro[5.5]undecan-3-yl)phenyl)amino)-5-((R)-3-(3-methyl-2-oxoimidazolidin-1-yl)piperidin-1-yl)pyrazine-2-carboxamide]",,< 5 nM
CN1CCN([C@@H]2CCCN(c3cnc(C(N)=O)c(Nc4ccc5c(c4)CCN(C4CN(c6ccc7c(c6)C(=O)N(C6CCC(=O)NC6=O)C7=O)C4)C5)n3)C2)C1=O (stereo partly drawn) [Compound 30],< 10 nM,5 to 15 nM
CN1CCN([C@H]2CCCN(c3cnc(C(N)=O)c(Nc4ccc(N5CCC6(CCN(c7ccc8c(c7)C(=O)N(C7CCC(=O)NC7=O)C8=O)CC6)CC5)nc4)n3)C2)C1=O (stereo partly drawn) [Compound 80],,< 5 nM
CN1CCN([C@@H]2CCCN(c3cnc(C(N)=O)c(Nc4ccc(C5(C)CCN(CCOCCCc6cccc7c6C(=O)N(C6CCC(=O)NC6=O)C7=O)CC5)cc4)n3)C2)C1=O (stereo partly drawn) [Compound 18],,5 to 15 nM
NC(=O)c1ncc(N2CCC[C@@H](N3CCCC3=O)C2)nc1Nc1ccc(N2CC(C3CCN(c4ccc5c(c4)C(=O)N(C4CCC(=O)NC4=O)C5=O)CC3)C2)cc1 (stereo partly drawn) [Compound 169],,< 5 nM
CN1CCN([C@@H]2CCCN(c3cnc(C(N)=O)c(Nc4ccc(OCCCNc5ccc6c(c5)C(=O)N(C5CCC(=O)NC5=O)C6=O)cc4)n3)C2)C1=O (stereo partly drawn) [Compound 64],10 to 1000 nM,> 15 nM
CN1CCN([C@@H]2CCCN(c3cnc(C(N)=O)c(Nc4ccc(N5CC6CN(CC7CCN(c8ccc9c(c8)C(=O)N(N8CCC(=O)NC8=O)C9=O)CC7)CC6C5)cc4)n3)C2)C1=O (stereo partly drawn) [Compound 114],,< 5 nM
CN1CCN([C@@H]2CCCN(c3cnc(C(N)=O)c(Nc4ccc(N5CCC6(CC5)CN(Cc5ccc7c(c5)C(=O)N(C5CCC(=O)NC5=O)C7=O)C6)cc4)n3)C2)C1=O (stereo partly drawn) [Compound 93],,< 5 nM
CN1CCN([C@@H]2CCCN(c3cnc(C(N)=O)c(Nc4ccc(C(=O)NCCOCCOCCOCCNc5cccc6c5C(=O)N(C5CCC(=O)NC5=O)C6=O)cc4)n3)C2)C1=O (stereo partly drawn) [Compound 3],,> 15 nM

# The remaining lines, values ahead:
DC50 [1],DC50 [2],Structure (SMILES)
10 to 1000 nM,< 5 nM,CN1CCN([C@@H]2CCCN(c3cnc(C(N)=O)c(Nc4ccc(C5CN(C6CCN(c7ccc8c(c7)C(=O)N(C7CCC(=O)NC7=O)C8=O)CC6)C5)cc4)n3)C2)C1=O (stereo partly drawn) [Compound 37]
10 to 1000 nM,< 5 nM,CN1CCN([C@@H]2CCCN(c3cnc(C(N)=O)c(Nc4ccc(C5CCN(C6CN(c7ccc8c(c7)C(=O)N(C7CCC(=O)NC7=O)C8=O)C6)CC5)cc4)n3)C2)C1=O (stereo partly drawn) [Compound 53]
> 1000 nM,< 5 nM,CN1CCN([C@@H]2CCCN(c3cnc(C(N)=O)c(Nc4ccc(C5CCN(CC6CCN(c7ccc(OC8CCC(=O)NC8=O)cn7)CC6)CC5)cc4)n3)C2)C1=O (stereo partly drawn) [Compound 166]
< 10 nM,< 5 nM,CN1CCN([C@@H]2CCCN(c3cnc(C(N)=O)c(Nc4ccc(C5CCN(CC6CCN(c7ccc8c(c7)n(C)c(=O)n8C7CCC(=O)NC7=O)CC6)CC5)cc4)n3)C2)C1=O (stereo partly drawn) [Compound 156]
> 1000 nM,5 to 15 nM,CN1CCN(c2cnc(C(N)=O)c(Nc3ccc(C4CCN(C[C@H]5CCN(c6ccc7c(c6)C(=O)N(C6CCC(=O)NC6=O)C7=O)C5)CC4)cc3)n2)CC1 (stereo partly drawn) [Compound 157]
> 1000 nM,< 5 nM,CN1CCN([C@@H]2CCCN(c3cnc(C(N)=O)c(Nc4ccc(N5CCC6(CCCN(c7ccc8c(c7)C(=O)N(C7CCC(=O)NC7=O)C8=O)C6)CC5)cc4)n3)C2)C1=O (stereo partly drawn) [Compound 29]
10 to 1000 nM,< 5 nM,CN1CCN([C@@H]2CCCN(c3cnc(C(N)=O)c(Nc4ccc5c(c4)CCN(CC4CCN(c6ccc7c(c6)C(=O)N(C6CCC(=O)NC6=O)C7=O)CC4)C5)n3)C2)C1=O (stereo partly drawn) [Compound 31]
10 to 1000 nM,< 5 nM,CN1CCN([C@@H]2CCCN(c3cnc(C(N)=O)c(Nc4ccc(N5CCN(C[C@@H]6[C@H]7CN(c8ccc9c(c8)C(=O)N(C8CCC(=O)NC8=O)C9=O)C[C@@H]67)CC5)cc4)n3)C2)C1=O (stereo partly drawn) [Compound 38]
10 to 1000 nM,< 5 nM,CN1CCN([C@@H]2CCCN(c3cnc(C(N)=O)c(Nc4ccc(C5CCN(CC6CCN(c7ccc8c(c7)C(=O)N(C7CCC(=O)NC7=O)C8=O)CC6)CC5)cc4)n3)C2)C1=O (stereo partly drawn) [Compound 51]
10 to 1000 nM,< 5 nM,CN1CCN([C@H]2CCCN(c3cnc(C(N)=O)c(Nc4cnn(C5CCN(CC6CN(c7ccc8c(c7)C(=O)N(C7CCC(=O)NC7=O)C8=O)C6)CC5)c4)n3)C2)C1=O (stereo partly drawn) [Compound 78]
,< 5 nM,CN1CCN([C@@H]2CCCN(c3cnc(C(N)=O)c(Nc4ccc(N5CCN(C[C@H]6CCCN(c7ccc8c(c7)C(=O)N(C7CCC(=O)NC7=O)C8=O)C6)CC5)cc4)n3)C2)C1=O (stereo partly drawn) [Compound 48]
,< 5 nM,CN1CCN([C@@H]2CCCN(c3cnc(C(N)=O)c(Nc4ccc(C5CN(CC6CCN(c7cnn(C8CCC(=O)NC8=O)c(=O)c7)CC6)C5)cc4)n3)C2)C1=O (stereo partly drawn) [Compound 118]
,< 5 nM,CN1CCN([C@@H]2CCCN(c3cnc(C(N)=O)c(Nc4ccc(N5CC6CN(CC7CN(c8ccc9c(c8)C(=O)N(C8CCC(=O)NC8=O)C9=O)C7)CC6C5)cc4)n3)C2)C1=O (stereo partly drawn) [Compound 91]

# Source: US11479556B1, “Bifunctional compounds for degrading BTK via ubiquitin proteosome pathway” (NURIX THERAPEUTICS, INC., priority 2018, dated 2022)
